Measurements published in patent US9127040B2, “Regulation of sodium channels by PLUNC proteins” (The University of North Carolina at Chapel Hill, priority 2011, dated 2015).
Ends that are not written are not given here.

T1: neutrophil elastase (Homo sapiens, UniProt P08246)
T1 sequence (P08246 30-267): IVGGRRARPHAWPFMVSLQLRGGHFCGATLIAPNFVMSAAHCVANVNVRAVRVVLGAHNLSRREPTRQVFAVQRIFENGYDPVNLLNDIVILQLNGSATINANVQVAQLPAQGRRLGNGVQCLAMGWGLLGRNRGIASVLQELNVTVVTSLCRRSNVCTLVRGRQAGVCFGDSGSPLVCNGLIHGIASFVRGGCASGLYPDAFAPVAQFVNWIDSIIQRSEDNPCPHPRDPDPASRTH

B1: SPLUNC1: human SPLUNC1 (SEQ ID NO:1), 256 amino acid secreted PLUNC family protein; rSPLUNC1 is the purified V5/6His-tagged recombinant form (protein, listed as Homo sapiens)
chain: MFQTGGLIVFYGLLAQTMAQFGGLPVPLDQTLPLNVNPALPLSPTGLAGSLTNALSNGLLSGGLLGILENLPLLDILKPGGGTSGGLLGGLLGKVTSVIPGLNNIIDIKVTDPQLLELGLVQSPDGHRLYVTIPLGIKLQVNTPLVGASLLRLAVKLDITAEILAVRDKQERIHLVLGDCTHSPGSLQISLLDGLGPLPIQGLLDSLTGILNKVLPELVQGNVCPLVNEVLRGLDITLVHDIVNMLIHGLQFVIKV
modifications: V5/6His tag in recombinant form
notes: rSPLUNC1 is the purified V5/6His-tagged recombinant form

Columns and labels:
[1] = target: T2, αENaC-eGFP and βENaC-mCherry (Homo sapiens, UniProt P37088+P51168); assay: Acceptor-photobleaching FRET between fluorescently tagged ENaC subunits; type: cell-based; details: one hour of exposure
T2 construct: expressed in transfected cells
Source text: Ai, cartoon of αENaC-eGFP and βENaC-mCherry under basal conditions (γENaC not shown). Aii We hypothesize that S18 binding to the extracellular loop of βENaC (1) induces a conformational change in ENaC which is reflected as altered intracellular FRET (2). This change may facilitate NEDD4-2-induced ubiquitination (3), leading to internalization of αβγENaC (4). […] In contrast, exposure to aprotinin had no effect. All n=8-10. C, Typical confocal images of HEK cells expressing αγENaC and βENaC-eGFP before and 1 h after 100 μM S18. Cell outlines are traced in white.
Since ENaC is regulated by NEDD4-2 binding to its C-termini, which leads to ubiquitination of its N-termini and internalization, we propose that S18 causes a conformational change in ENaC, leading to increased ubiquitination followed by internalization (FIG. 21A). As a first step towards understanding the mechanism of action of SPLUNC1, we performed FRET on fluorescently tagged ENaCs. […] Furthermore, βENaC-eGFP internalized upon S18 binding (FIG. 21C), consistent with our surface biotinylation data from oocytes.

human ASIC1a = target: T3, human ASIC1a (Homo sapiens, UniProt P78348); assay: Whole-cell patch-clamp currents in CHO cells stably expressing ASIC; type: cell-based; details: 10 μM S18
T3 construct: expressed in transfected cells
Method: (§1) Previously described cell lines expressing human ASIC1a, human ASIC2a and rat ASIC3 were used in these experiments (Poirot, J. Biol. Chem. 279: 38448 (2004))). Electrophysiological measurements were carried out with an EPC10 patch-clamp amplifier (HEKA Electronics, Lambrecht, Germany) as previously described (Blanchard et al., Pflugers Arch. 461:123 (2011)).
(§2) Whole-cell currents were measured from CHO cells stably expressing acid-sensing ion channel (ASIC) subunits, voltage clamped to −60 mV. Stimulations lasted 5 s and were performed every 45 s. Cells were stimulated three times with pH 6.6 (ASIC1a and -3) or pH 4 (ASIC2a). Between stimulations, cells were returned to a pH 7.4 conditioning solution for […] recovery from inactivation. The conditioning solution was then switched to a pH 7.4 solution containing 10 μM S18. Three stimulations in the presence of 10 μM S18 were performed before washing off the peptide. Current amplitudes of the above described experiments were normalized to the first control value and plotted as a function of time (FIG. 28B). S18 was added at T=0 s. ASIC1a=▪, ASIC2a=●, ASIC3=▴, all n=3. Cells were incubated for 40 s in a pH 7.1 (ASIC1a and -3) or 5.6 (ASIC2a) conditioning solution, then activated using an acidic stimulus (pH 5 for ASIC1a and -3, and pH 4 for ASIC2a) (FIG. 28C). Experiments were performed with or without 10 μM S18 in the conditioning solution. Current amplitudes measured during the acidic stimulus were normalized to the control amplitude obtained with a pH 7.4 conditioning solution. Open bars=control, closed bars=S18, all n=3-4. […] Stimulations were performed every 45 s. The protocol was performed with or without 10 μM S18 in all solutions. The average current is plotted as a function of time. […] Control=∘, S18=▪, all n=3-5.

human ASIC2a = target: T4, human ASIC2a (Homo sapiens, UniProt Q16515); assay: as above; type: cell-based; details: 10 μM S18
T4 construct: expressed in transfected cells
Method: as §1, §2

rat ASIC3 = target: T5, rat ASIC3 (Rattus norvegicus, UniProt O35240); assay: as above; type: cell-based; details: 10 μM S18
T5 construct: expressed in transfected cells
Method: as §1, §2

CFTR = target: T6, CFTR (Homo sapiens, UniProt P13569); assay: CFTR activity in Xenopus oocytes co-expressing β2 adrenergic receptor, isoproterenol stimulated; type: cell-based; details: 10 μM isoproterenol
T6 construct: expressed in transfected cells; host or cells: Xenopus oocytes

trypsin = assay: Cell-free fluorogenic assay, trypsin cleavage of BGAR-MCA; type: biochemical; details: 50 ng/ml rSPLUNC1 or 2 U/ml aprotinin; 1.0 or 0.3 U/ml trypsin
Method: For cell-free assays, reactions were carried out in 50 μl Ringer in a 96 well plate format with 100 μM BGAR-MCA. To measure endogenous protease activity in human bronchial epithelial cultures, 30 μl Ringer with 100 μM BGAR-MCA were placed directly onto the mucosal surfaces of human bronchial epithelial cultures grown on 12 mm T-clear inserts and the cultures were assayed in 12 well plates.

neutrophil elastase = target: T1, neutrophil elastase; assay: Cleavage of SPLUNC1 by neutrophil elastase at pH 6 vs 7.4; details: 10 μM SPLUNC1, 100 nM neutrophil elastase
Method: A, Neutrophil elastase activity is moderately greater at pH 6 than at pH 7.4. B, Coomassie-stained gel showing 10 μM SPLUNC1 exposed to 100 nM Neutrophil elastase at pH 6 and 7.4. The reaction was stopped at timed intervals.
Based on SPLUNC1 but not S18's pH-sensitivity (FIGS. 25B and 25C), we hypothesized that SPLUNC1 undergoes a conformational change, and binds to itself at pH 6. To test this, we exposed SPLUNC1 to neutrophil elastase at pH 6 vs. 7.4 (FIG. 26). […] This is consistent with our hypothesis that less SPLUNC1 is exposed at low pH.

T6 sequence (P13569 whole entry, species assumed): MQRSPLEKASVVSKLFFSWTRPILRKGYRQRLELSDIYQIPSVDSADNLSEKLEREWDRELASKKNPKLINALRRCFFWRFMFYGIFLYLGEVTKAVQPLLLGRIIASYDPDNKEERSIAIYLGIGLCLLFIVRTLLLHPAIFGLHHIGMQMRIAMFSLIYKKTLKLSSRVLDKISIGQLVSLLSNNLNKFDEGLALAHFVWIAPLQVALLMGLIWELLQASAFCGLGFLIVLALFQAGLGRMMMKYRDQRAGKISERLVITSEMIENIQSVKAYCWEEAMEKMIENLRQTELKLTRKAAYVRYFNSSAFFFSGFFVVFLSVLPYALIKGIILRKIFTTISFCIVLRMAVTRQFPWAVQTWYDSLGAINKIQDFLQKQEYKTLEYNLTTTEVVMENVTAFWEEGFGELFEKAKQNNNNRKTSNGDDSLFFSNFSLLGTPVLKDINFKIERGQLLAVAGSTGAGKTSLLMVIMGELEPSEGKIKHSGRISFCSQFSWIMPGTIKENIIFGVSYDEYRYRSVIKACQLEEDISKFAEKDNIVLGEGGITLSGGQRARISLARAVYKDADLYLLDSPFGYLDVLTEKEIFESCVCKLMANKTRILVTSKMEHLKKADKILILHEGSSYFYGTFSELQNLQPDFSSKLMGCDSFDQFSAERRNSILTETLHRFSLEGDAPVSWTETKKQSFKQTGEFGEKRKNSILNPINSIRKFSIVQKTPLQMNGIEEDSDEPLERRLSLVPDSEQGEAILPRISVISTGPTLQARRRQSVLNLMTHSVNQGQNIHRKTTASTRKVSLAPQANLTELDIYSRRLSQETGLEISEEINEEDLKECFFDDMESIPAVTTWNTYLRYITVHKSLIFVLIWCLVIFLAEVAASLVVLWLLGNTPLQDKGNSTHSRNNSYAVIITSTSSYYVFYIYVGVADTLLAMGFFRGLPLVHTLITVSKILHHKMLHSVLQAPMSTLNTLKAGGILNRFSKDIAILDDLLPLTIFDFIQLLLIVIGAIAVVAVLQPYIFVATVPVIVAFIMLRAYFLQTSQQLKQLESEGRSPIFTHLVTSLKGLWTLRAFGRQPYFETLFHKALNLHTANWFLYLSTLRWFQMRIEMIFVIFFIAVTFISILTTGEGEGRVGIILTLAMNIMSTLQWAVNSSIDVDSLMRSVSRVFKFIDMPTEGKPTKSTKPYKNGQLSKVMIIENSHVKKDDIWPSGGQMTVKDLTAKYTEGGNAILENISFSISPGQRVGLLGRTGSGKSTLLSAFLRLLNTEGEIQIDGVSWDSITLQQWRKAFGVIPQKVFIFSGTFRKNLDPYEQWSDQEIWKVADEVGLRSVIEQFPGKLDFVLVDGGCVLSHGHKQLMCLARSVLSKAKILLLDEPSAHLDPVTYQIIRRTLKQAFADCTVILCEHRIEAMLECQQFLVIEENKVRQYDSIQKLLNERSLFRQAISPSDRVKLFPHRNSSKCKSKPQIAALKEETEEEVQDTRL
T2 sequence (P37088 whole entry): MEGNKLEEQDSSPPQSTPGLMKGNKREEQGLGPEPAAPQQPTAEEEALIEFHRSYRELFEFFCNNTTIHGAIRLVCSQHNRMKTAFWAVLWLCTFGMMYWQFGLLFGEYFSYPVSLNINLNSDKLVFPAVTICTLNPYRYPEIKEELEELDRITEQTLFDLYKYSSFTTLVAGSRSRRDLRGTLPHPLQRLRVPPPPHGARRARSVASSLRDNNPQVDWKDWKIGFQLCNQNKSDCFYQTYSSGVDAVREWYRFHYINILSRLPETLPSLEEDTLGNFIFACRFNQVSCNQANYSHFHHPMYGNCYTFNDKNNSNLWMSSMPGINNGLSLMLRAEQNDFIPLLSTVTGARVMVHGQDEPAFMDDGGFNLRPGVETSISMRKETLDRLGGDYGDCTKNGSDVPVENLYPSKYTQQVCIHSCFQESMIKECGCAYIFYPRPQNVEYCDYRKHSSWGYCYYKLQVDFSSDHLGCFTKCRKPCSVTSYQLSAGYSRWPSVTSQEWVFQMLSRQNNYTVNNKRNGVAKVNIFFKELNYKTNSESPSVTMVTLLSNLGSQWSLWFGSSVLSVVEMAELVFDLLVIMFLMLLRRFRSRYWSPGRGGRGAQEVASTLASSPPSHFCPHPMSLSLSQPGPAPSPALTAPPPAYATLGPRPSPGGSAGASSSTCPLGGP
T2 sequence (P51168 whole entry): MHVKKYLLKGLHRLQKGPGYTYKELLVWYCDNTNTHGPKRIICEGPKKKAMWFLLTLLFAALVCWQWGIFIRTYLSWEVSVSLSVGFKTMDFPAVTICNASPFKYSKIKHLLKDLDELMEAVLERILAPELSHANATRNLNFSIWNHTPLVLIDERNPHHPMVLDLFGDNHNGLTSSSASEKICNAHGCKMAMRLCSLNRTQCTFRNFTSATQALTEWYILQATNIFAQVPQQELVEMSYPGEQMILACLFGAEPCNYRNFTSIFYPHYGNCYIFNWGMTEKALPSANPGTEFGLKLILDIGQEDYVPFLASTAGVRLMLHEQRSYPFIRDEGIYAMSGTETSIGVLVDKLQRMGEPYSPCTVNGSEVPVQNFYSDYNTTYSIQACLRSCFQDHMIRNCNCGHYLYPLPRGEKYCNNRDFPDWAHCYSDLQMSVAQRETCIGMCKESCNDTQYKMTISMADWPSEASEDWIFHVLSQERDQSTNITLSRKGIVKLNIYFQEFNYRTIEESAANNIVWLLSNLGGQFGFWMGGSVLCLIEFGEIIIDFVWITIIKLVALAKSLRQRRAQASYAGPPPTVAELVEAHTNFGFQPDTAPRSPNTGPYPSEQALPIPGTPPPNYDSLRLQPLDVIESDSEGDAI
T2 sequence (P51170 whole entry partner): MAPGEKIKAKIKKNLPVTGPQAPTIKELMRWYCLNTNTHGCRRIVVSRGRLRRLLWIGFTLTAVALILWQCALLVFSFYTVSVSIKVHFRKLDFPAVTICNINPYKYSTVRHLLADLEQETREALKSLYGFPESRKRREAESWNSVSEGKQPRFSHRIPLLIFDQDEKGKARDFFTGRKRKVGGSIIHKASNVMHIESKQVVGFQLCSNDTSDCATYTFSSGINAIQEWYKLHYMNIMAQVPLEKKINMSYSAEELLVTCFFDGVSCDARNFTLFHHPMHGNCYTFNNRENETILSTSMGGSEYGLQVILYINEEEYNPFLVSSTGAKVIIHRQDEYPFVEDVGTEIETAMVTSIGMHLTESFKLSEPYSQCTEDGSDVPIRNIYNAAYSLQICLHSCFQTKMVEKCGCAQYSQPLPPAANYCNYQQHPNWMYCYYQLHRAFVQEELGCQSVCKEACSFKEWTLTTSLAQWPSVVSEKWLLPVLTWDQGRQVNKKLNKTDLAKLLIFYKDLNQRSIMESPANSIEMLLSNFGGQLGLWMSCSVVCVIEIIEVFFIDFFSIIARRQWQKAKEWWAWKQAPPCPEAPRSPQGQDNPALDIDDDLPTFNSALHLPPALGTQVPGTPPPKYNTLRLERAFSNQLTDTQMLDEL
T3 sequence (P78348 whole entry): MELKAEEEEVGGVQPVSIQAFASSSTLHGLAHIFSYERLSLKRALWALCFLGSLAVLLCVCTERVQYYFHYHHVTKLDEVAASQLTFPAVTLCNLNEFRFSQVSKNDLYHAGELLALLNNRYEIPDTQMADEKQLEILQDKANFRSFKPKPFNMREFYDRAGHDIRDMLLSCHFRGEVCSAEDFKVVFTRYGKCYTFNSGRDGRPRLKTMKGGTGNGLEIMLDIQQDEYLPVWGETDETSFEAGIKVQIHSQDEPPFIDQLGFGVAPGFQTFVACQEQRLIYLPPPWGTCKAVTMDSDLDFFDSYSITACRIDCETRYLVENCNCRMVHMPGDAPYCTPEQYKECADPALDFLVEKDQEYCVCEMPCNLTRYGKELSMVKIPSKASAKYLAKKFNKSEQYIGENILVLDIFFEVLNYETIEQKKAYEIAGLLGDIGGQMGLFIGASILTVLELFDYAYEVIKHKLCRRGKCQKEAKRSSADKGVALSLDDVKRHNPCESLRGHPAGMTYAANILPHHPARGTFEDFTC
T5 sequence (O35240 whole entry): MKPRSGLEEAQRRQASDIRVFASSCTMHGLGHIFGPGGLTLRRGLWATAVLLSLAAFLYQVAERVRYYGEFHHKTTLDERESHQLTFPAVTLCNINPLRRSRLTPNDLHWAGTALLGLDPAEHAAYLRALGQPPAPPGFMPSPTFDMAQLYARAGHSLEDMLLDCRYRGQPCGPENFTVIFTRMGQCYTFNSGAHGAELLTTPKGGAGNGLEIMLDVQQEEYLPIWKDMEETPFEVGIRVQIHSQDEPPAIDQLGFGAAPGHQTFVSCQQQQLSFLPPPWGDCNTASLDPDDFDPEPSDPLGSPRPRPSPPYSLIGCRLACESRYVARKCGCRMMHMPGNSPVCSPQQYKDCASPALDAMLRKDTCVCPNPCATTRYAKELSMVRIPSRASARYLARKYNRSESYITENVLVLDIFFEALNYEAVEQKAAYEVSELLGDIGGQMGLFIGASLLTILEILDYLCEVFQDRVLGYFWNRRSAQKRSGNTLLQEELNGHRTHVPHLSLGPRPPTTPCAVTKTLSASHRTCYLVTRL
T4 sequence (Q16515 whole entry): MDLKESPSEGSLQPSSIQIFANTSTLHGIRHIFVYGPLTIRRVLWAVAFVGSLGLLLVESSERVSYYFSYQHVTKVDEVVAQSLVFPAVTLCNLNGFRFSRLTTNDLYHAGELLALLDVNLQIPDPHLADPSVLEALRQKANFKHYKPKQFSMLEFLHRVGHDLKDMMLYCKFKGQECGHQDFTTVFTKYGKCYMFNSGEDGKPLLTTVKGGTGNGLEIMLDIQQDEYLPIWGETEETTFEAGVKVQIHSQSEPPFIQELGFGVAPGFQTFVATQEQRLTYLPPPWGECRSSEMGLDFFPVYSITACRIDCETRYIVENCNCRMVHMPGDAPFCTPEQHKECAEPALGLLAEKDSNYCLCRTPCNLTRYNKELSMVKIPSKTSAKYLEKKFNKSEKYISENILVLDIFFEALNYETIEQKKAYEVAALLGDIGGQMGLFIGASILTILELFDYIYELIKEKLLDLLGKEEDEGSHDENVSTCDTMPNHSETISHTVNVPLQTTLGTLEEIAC

Molecule	FRET between αENaC-eGFP and βENaC-mCherry [1]	function of ASIC1a channels (human ASIC1a)	function of ASIC2a channels (human ASIC2a)	function of ASIC3 channels (rat ASIC3)	CFTR activity (CFTR; 5 ng/ml rSPLUNC1 exposure)	CFTR activity (CFTR; injection of SPLUNC1 cRNA)	inhibition of trypsin cleavage of fluorogenic substrate BGAR-MCA (trypsin) [%]	cleavage by neutrophil elastase at pH 6 (neutrophil elastase)
GGLPVPLDQTLPLNVNPA [S18]	significantly diminished	does not Affect the Function	does not Affect the Function	does not Affect the Function	–	–	–	–
B1	–	–	–	–	no inhibitory effect on CFTR activity	no inhibitory effect on CFTR activity	~10	resistant to cleavage
